Data from publication PMC12454493, “Insight on novel sulfamoylphenyl pyrazole derivatives as anticancer carbonic anhydrase inhibitors” (Molecular Diversity, 2024).

Tests used:
[1] = system: UACC-62; experiment: NCI-60 one-dose SRB screen (Melanoma); assay type: cell-based; conditions: Homo sapiens, single dose 10 µM, 48 h, read-out: Growth inhibition percent (GI %)
[2] = system: MDA-MB-435; experiment: NCI-60 one-dose SRB screen (Melanoma); assay type: cell-based; conditions: Homo sapiens, single dose 10 µM, 48 h, read-out: Growth inhibition percent (GI %)
[3] = system: LOX IMVI; experiment: NCI-60 one-dose SRB screen (Melanoma); assay type: cell-based; conditions: Homo sapiens, single dose 10 µM, 48 h, read-out: Growth inhibition percent (GI %)
[4] = system: M14; experiment: NCI-60 one-dose SRB screen (Melanoma); assay type: cell-based; conditions: Homo sapiens, single dose 10 µM, 48 h, read-out: Growth inhibition percent (GI %)
[5] = system: SK-MEL-5; experiment: NCI-60 one-dose SRB screen (Melanoma); assay type: cell-based; conditions: Homo sapiens, single dose 10 µM, 48 h, read-out: Growth inhibition percent (GI %)
[6] = system: SK-MEL-2; experiment: NCI-60 one-dose SRB screen (Melanoma); assay type: cell-based; conditions: Homo sapiens, single dose 10 µM, 48 h, read-out: Growth inhibition percent (GI %)
[7] = system: SK-MEL-28; experiment: NCI-60 one-dose SRB screen (Melanoma); assay type: cell-based; conditions: Homo sapiens, single dose 10 µM, 48 h, read-out: Growth inhibition percent (GI %)
[8] = system: UACC-257; experiment: NCI-60 one-dose SRB screen (Melanoma); assay type: cell-based; conditions: Homo sapiens, single dose 10 µM, 48 h, read-out: Growth inhibition percent (GI %)
[9] = system: MALME-3M; experiment: NCI-60 one-dose SRB screen (Melanoma); assay type: cell-based; conditions: Homo sapiens, single dose 10 µM, 48 h, read-out: Growth inhibition percent (GI %)
[10] = system: SF-539; experiment: NCI-60 one-dose SRB screen (CNS Cancer); assay type: cell-based; conditions: Homo sapiens, single dose 10 µM, 48 h, read-out: Growth inhibition percent (GI %)
[11] = system: SF-268; experiment: NCI-60 one-dose SRB screen (CNS Cancer); assay type: cell-based; conditions: Homo sapiens, single dose 10 µM, 48 h, read-out: Growth inhibition percent (GI %)
[12] = system: SNB-75; experiment: NCI-60 one-dose SRB screen (CNS Cancer); assay type: cell-based; conditions: Homo sapiens, single dose 10 µM, 48 h, read-out: Growth inhibition percent (GI %)
[13] = system: SNB-19; experiment: NCI-60 one-dose SRB screen (CNS Cancer); assay type: cell-based; conditions: Homo sapiens, single dose 10 µM, 48 h, read-out: Growth inhibition percent (GI %)
[14] = system: U251; experiment: NCI-60 one-dose SRB screen (CNS Cancer); assay type: cell-based; conditions: Homo sapiens, U-251, single dose 10 µM, 48 h, read-out: Growth inhibition percent (GI %)
[15] = system: SF-295; experiment: NCI-60 one-dose SRB screen (CNS Cancer); assay type: cell-based; conditions: Homo sapiens, single dose 10 µM, 48 h, read-out: Growth inhibition percent (GI %)
[16] = target: hCA IX (Homo sapiens, UniProt Q16790); experiment: CA inhibitory activity, spectrophotometric p-NPA assay; assay type: biochemical; conditions: p-NPA substrate, pH 7.5, 25 °C, triplicate; read-out: IC50 (µM) ± SD hCA IX
[17] = system: CCRF-CEM; experiment: NCI-60 one-dose SRB screen (Leukemia); assay type: cell-based; conditions: Homo sapiens, single dose 10 µM, 48 h, read-out: Growth inhibition percent (GI %)
[18] = system: MCF-7; experiment: NCI-60 one-dose SRB screen (Breast Cancer); assay type: cell-based; conditions: Homo sapiens, MCF7, single dose 10 µM, 48 h, read-out: Growth inhibition percent (GI %)
[19] = system: MDA-MB-231/ATCC; experiment: NCI-60 one-dose SRB screen (Breast Cancer); assay type: cell-based; conditions: Homo sapiens, single dose 10 µM, 48 h, read-out: Growth inhibition percent (GI %)
[20] = system: HS 578T; experiment: NCI-60 one-dose SRB screen (Breast Cancer); assay type: cell-based; conditions: Homo sapiens, single dose 10 µM, 48 h, read-out: Growth inhibition percent (GI %)
[21] = system: T-47D; experiment: NCI-60 one-dose SRB screen (Breast Cancer); assay type: cell-based; conditions: Homo sapiens, T47D, single dose 10 µM, 48 h, read-out: Growth inhibition percent (GI %)
[22] = system: MDA-MB-468; experiment: NCI-60 one-dose SRB screen (Breast Cancer); assay type: cell-based; conditions: Homo sapiens, single dose 10 µM, 48 h, read-out: Growth inhibition percent (GI %)
[23] = system: BT-549; experiment: NCI-60 one-dose SRB screen (Breast Cancer); assay type: cell-based; conditions: Homo sapiens, single dose 10 µM, 48 h, read-out: Growth inhibition percent (GI %)
[24] = system: A549/ATCC; experiment: NCI-60 one-dose SRB screen (Non-Small Cell Lung Cancer); assay type: cell-based; conditions: Homo sapiens, single dose 10 µM, 48 h, read-out: Growth inhibition percent (GI %)
[25] = system: NCI-H226; experiment: as above; assay type: cell-based; conditions: Homo sapiens, single dose 10 µM, 48 h, read-out: Growth inhibition percent (GI %)
[26] = system: NCI-H522; experiment: as above; assay type: cell-based; conditions: Homo sapiens, single dose 10 µM, 48 h, read-out: Growth inhibition percent (GI %)
[27] = system: HOP-62; experiment: as above; assay type: cell-based; conditions: Homo sapiens, single dose 10 µM, 48 h, read-out: Growth inhibition percent (GI %)
[28] = system: NCI-H322M; experiment: as above; assay type: cell-based; conditions: Homo sapiens, single dose 10 µM, 48 h, read-out: Growth inhibition percent (GI %)
[29] = system: EKVX; experiment: as above; assay type: cell-based; conditions: Homo sapiens, single dose 10 µM, 48 h, read-out: Growth inhibition percent (GI %)
[30] = system: HOP-92; experiment: as above; assay type: cell-based; conditions: Homo sapiens, single dose 10 µM, 48 h, read-out: Growth inhibition percent (GI %)
[31] = system: NCI-H460; experiment: as above; assay type: cell-based; conditions: Homo sapiens, single dose 10 µM, 48 h, read-out: Growth inhibition percent (GI %)
[32] = system: NCI-H23; experiment: as above; assay type: cell-based; conditions: Homo sapiens, single dose 10 µM, 48 h, read-out: Growth inhibition percent (GI %)
[33] = system: SN12C; experiment: NCI-60 one-dose SRB screen (Renal Cancer); assay type: cell-based; conditions: Homo sapiens, single dose 10 µM, 48 h, read-out: Growth inhibition percent (GI %)
[34] = system: TK-10; experiment: NCI-60 one-dose SRB screen (Renal Cancer); assay type: cell-based; conditions: Homo sapiens, single dose 10 µM, 48 h, read-out: Growth inhibition percent (GI %)
[35] = system: A498; experiment: NCI-60 one-dose SRB screen (Renal Cancer); assay type: cell-based; conditions: Homo sapiens, single dose 10 µM, 48 h, read-out: Growth inhibition percent (GI %)
[36] = system: CAKI-1; experiment: NCI-60 one-dose SRB screen (Renal Cancer); assay type: cell-based; conditions: Homo sapiens, single dose 10 µM, 48 h, read-out: Growth inhibition percent (GI %)
[37] = system: UO-31; experiment: NCI-60 one-dose SRB screen (Renal Cancer); assay type: cell-based; conditions: Homo sapiens, single dose 10 µM, 48 h, read-out: Growth inhibition percent (GI %)
[38] = system: RXF 393; experiment: NCI-60 one-dose SRB screen (Renal Cancer); assay type: cell-based; conditions: Homo sapiens, single dose 10 µM, 48 h, read-out: Growth inhibition percent (GI %)
[39] = system: ACHN; experiment: NCI-60 one-dose SRB screen (Renal Cancer); assay type: cell-based; conditions: Homo sapiens, single dose 10 µM, 48 h, read-out: Growth inhibition percent (GI %)
[40] = system: HCT-116; experiment: NCI-60 one-dose SRB screen (Colon Cancer); assay type: cell-based; conditions: Homo sapiens, single dose 10 µM, 48 h, read-out: Growth inhibition percent (GI %)
[41] = system: HCT-15; experiment: NCI-60 one-dose SRB screen (Colon Cancer); assay type: cell-based; conditions: Homo sapiens, single dose 10 µM, 48 h, read-out: Growth inhibition percent (GI %)
[42] = system: HT29; experiment: NCI-60 one-dose SRB screen (Colon Cancer); assay type: cell-based; conditions: Homo sapiens, HT-29, single dose 10 µM, 48 h, read-out: Growth inhibition percent (GI %)
[43] = system: SW-620; experiment: NCI-60 one-dose SRB screen (Colon Cancer); assay type: cell-based; conditions: Homo sapiens, single dose 10 µM, 48 h, read-out: Growth inhibition percent (GI %)
[44] = system: HCC-2998; experiment: NCI-60 one-dose SRB screen (Colon Cancer); assay type: cell-based; conditions: Homo sapiens, single dose 10 µM, 48 h, read-out: Growth inhibition percent (GI %)
[45] = system: KM12; experiment: NCI-60 one-dose SRB screen (Colon Cancer); assay type: cell-based; conditions: Homo sapiens, single dose 10 µM, 48 h, read-out: Growth inhibition percent (GI %)
[46] = system: COLO 205; experiment: NCI-60 one-dose SRB screen (Colon Cancer); assay type: cell-based; conditions: Homo sapiens, single dose 10 µM, 48 h, read-out: Growth inhibition percent (GI %)

`NS(=O)(=O)c1ccc(-n2cc(C(=O)OCC(=O)Nc3nnc(S(N)(=O)=O)s3)c(-c3ccccc3)n2)cc1` [Compound 6a, 2-Oxo-2-[(5-sulfamoyl-1,3,4-thiadiazol-2-yl)amino] ethyl 3-phenyl-1-(4-sulfamoylphenyl)-1H-pyrazole-4-carboxylate] was tested, and the inhibition at 10 µM [1] was 17.7%, the inhibition at 10 µM [2] was < 5% and the inhibition at 10 µM [3] was 8.67%. The inhibition at 10 µM [4] was < 5%, the inhibition at 10 µM [5] was < 5% and the inhibition at 10 µM [6] was < 5%. The inhibition at 10 µM [7] was < 5%, the inhibition at 10 µM [8] was < 5% and the inhibition at 10 µM [9] was < 5%. The inhibition at 10 µM [10] was < 5%, the inhibition at 10 µM [11] was < 5% and the inhibition at 10 µM [12] was 5.39%. For the same compound, the inhibition at 10 µM [13] was 6.91%, the inhibition at 10 µM [14] was < 5% and the inhibition at 10 µM [15] was < 5%. For the same compound, the IC50 [16] was 0.591 ± 0.028 µM, the inhibition at 10 µM [17] was < 5% and the inhibition at 10 µM [18] was 22.6%. The inhibition at 10 µM [19] was 9.95%, the inhibition at 10 µM [20] was 5.52% and the inhibition at 10 µM [21] was < 5%. For the same compound, the inhibition at 10 µM [22] was < 5%, the inhibition at 10 µM [23] was < 5% and the inhibition at 10 µM [24] was < 5%. For the same compound, the inhibition at 10 µM [25] was 16.2%, the inhibition at 10 µM [26] was 13.3% and the inhibition at 10 µM [27] was < 5%. For the same compound, the inhibition at 10 µM [28] was < 5%, the inhibition at 10 µM [29] was 9.86% and the inhibition at 10 µM [30] was < 5%. For the same compound, the inhibition at 10 µM [31] was < 5%, the inhibition at 10 µM [32] was < 5% and the inhibition at 10 µM [33] was < 5%. For the same compound, the inhibition at 10 µM [34] was < 5%, the inhibition at 10 µM [35] was < 5% and the inhibition at 10 µM [36] was 7.52%. The inhibition at 10 µM [37] was 12.6%, the inhibition at 10 µM [38] was < 5% and the inhibition at 10 µM [39] was 6.63%. The inhibition at 10 µM [40] was < 5%, the inhibition at 10 µM [41] was < 5% and the inhibition at 10 µM [42] was < 5%. The inhibition at 10 µM [43] was < 5%, the inhibition at 10 µM [44] was < 5% and the inhibition at 10 µM [45] was < 5%. The inhibition at 10 µM [46] was < 5%.
